Species: Rattus norvegicus
Assay: DrugMatrix - Regimen: Daily Repeat
Assay type: toxicity, organism-based, Sprague-Dawley
Design: regimen Daily Repeat, gender Male, age 6-8 weeks
Conditions: in vivo, po, 30 mg/kg, route oral GAVAGE, dose level Low, vehicle 100 % WATER; for ABSOLUTE BASOPHIL / ABSOLUTE EOSINOPHIL / ABSOLUTE LYMPHOCYTE / ABSOLUTE MONOCYTE / ABSOLUTE SEGMENTED NEUTROPHIL / BASOPHIL / EOSINOPHIL / ERYTHROCYTE COUNT / HEMATOCRIT / HEMOGLOBIN / LEUKOCYTE COUNT / LYMPHOCYTE / MEAN CORPUSCULAR HEMOGLOBIN / MEAN CORPUSCULAR HEMOGLOBIN CONCENTRATION / MEAN CORPUSCULAR VOLUME / MONOCYTE / NEUTROPHIL / NUCLEATED RED BLOOD CELLS / PLATELET COUNT: tissue Blood; for ALANINE AMINOTRANSFERASE / ALBUMIN / ALKALINE PHOSPHATASE / ASPARTATE AMINOTRANSFERASE / BLOOD UREA NITROGEN / CARBON DIOXIDE / CHLORIDE / CHOLESTEROL / CREATINE PHOSPHOKINASE / CREATININE / GLUCOSE / LACTATE DEHYDROGENASE / LIPASE / PHOSPHORUS / POTASSIUM / SODIUM / TOTAL BILIRUBIN / TOTAL PROTEIN / URIC ACID: tissue Plasma

COc1cccc(C2(O)CCCCC2CN(C)C)c1 (stereo unspecified) [TRAMADOL]
ABSOLUTE BASOPHIL (72 h, time 3 day): 0 CELLS/uL | ABSOLUTE EOSINOPHIL (72 h, time 3 day): 0 CELLS/uL | ABSOLUTE LYMPHOCYTE (72 h, time 3 day): 6045 CELLS/uL | ABSOLUTE MONOCYTE (72 h, time 3 day): 124.33 CELLS/uL | ABSOLUTE SEGMENTED NEUTROPHIL (72 h, time 3 day): 697.33 CELLS/uL | BASOPHIL (72 h, time 3 day): 0% | EOSINOPHIL (72 h, time 3 day): 0% | ERYTHROCYTE COUNT (72 h, time 3 day): 5.35 x10E6/uL | HEMATOCRIT (72 h, time 3 day): 33.3% | HEMOGLOBIN (72 h, time 3 day): 13.03 G/DL | LEUKOCYTE COUNT (72 h, time 3 day): 6.87 x10E3/uL | LYMPHOCYTE (72 h, time 3 day): 88.33% | MEAN CORPUSCULAR HEMOGLOBIN (72 h, time 3 day): 24.4 pg | MEAN CORPUSCULAR HEMOGLOBIN CONCENTRATION (72 h, time 3 day): 39.13 G/DL | MEAN CORPUSCULAR VOLUME (72 h, time 3 day): 62.23 fL | MONOCYTE (72 h, time 3 day): 1.67% | NEUTROPHIL (72 h, time 3 day): 10% | NUCLEATED RED BLOOD CELLS (72 h, time 3 day): 0.67 /100WBC | PLATELET COUNT (72 h, time 3 day): 1017 x10E3/uL | ALANINE AMINOTRANSFERASE (72 h, time 3 day): 47.33 u/L | ALBUMIN (72 h, time 3 day): 4.13 G/DL | ALKALINE PHOSPHATASE (72 h, time 3 day): 434.67 u/L | ASPARTATE AMINOTRANSFERASE (72 h, time 3 day): 82.67 u/L | BLOOD UREA NITROGEN (72 h, time 3 day): 12.33 mg/dL | CARBON DIOXIDE (72 h, time 3 day): 34.67 mmol/L | CHLORIDE (72 h, time 3 day): 99.67 MEQ/L | CHOLESTEROL (72 h, time 3 day): 72.33 mg/dL | CREATINE PHOSPHOKINASE (72 h, time 3 day): 347.67 u/L | CREATININE (72 h, time 3 day): 0.16 mg/dL | GLUCOSE (72 h, time 3 day): 136.33 mg/dL | LACTATE DEHYDROGENASE (72 h, time 3 day): 123.33 u/L | LIPASE (72 h, time 3 day): 9.33 u/L | PHOSPHORUS (72 h, time 3 day): 11 mg/dL | POTASSIUM (72 h, time 3 day): 6.23 MEQ/L | SODIUM (72 h, time 3 day): 144.43 MEQ/L | TOTAL BILIRUBIN (72 h, time 3 day): 0.2 mg/dL | TOTAL PROTEIN (72 h, time 3 day): 5.93 G/DL | URIC ACID (72 h, time 3 day): 0.8 mg/dL | ABSOLUTE BASOPHIL (120 h, time 5 day): 0 CELLS/uL | ABSOLUTE EOSINOPHIL (120 h, time 5 day): 97.33 CELLS/uL | ABSOLUTE LYMPHOCYTE (120 h, time 5 day): 8968.67 CELLS/uL | ABSOLUTE MONOCYTE (120 h, time 5 day): 0 CELLS/uL | ABSOLUTE SEGMENTED NEUTROPHIL (120 h, time 5 day): 967.33 CELLS/uL | BASOPHIL (120 h, time 5 day): 0% | EOSINOPHIL (120 h, time 5 day): 1% | ERYTHROCYTE COUNT (120 h, time 5 day): 5.45 x10E6/uL | HEMATOCRIT (120 h, time 5 day): 35.3% | HEMOGLOBIN (120 h, time 5 day): 13.57 G/DL | LEUKOCYTE COUNT (120 h, time 5 day): 10.03 x10E3/uL | LYMPHOCYTE (120 h, time 5 day): 88.67% | MEAN CORPUSCULAR HEMOGLOBIN (120 h, time 5 day): 24.87 pg | MEAN CORPUSCULAR HEMOGLOBIN CONCENTRATION (120 h, time 5 day): 38.47 G/DL | MEAN CORPUSCULAR VOLUME (120 h, time 5 day): 64.67 fL | MONOCYTE (120 h, time 5 day): 0% | NEUTROPHIL (120 h, time 5 day): 10.33% | NUCLEATED RED BLOOD CELLS (120 h, time 5 day): 0 /100WBC | PLATELET COUNT (120 h, time 5 day): 1078.67 x10E3/uL | ALANINE AMINOTRANSFERASE (120 h, time 5 day): 45 u/L | ALBUMIN (120 h, time 5 day): 4.03 G/DL | ALKALINE PHOSPHATASE (120 h, time 5 day): 395 u/L | ASPARTATE AMINOTRANSFERASE (120 h, time 5 day): 72 u/L | BLOOD UREA NITROGEN (120 h, time 5 day): 13 mg/dL | CARBON DIOXIDE (120 h, time 5 day): 30.67 mmol/L | CHLORIDE (120 h, time 5 day): 99 MEQ/L | CHOLESTEROL (120 h, time 5 day): 69.33 mg/dL | CREATINE PHOSPHOKINASE (120 h, time 5 day): 188 u/L | CREATININE (120 h, time 5 day): 0.17 mg/dL | GLUCOSE (120 h, time 5 day): 143.67 mg/dL | LACTATE DEHYDROGENASE (120 h, time 5 day): 113.33 u/L | LIPASE (120 h, time 5 day): 9.33 u/L | PHOSPHORUS (120 h, time 5 day): 11.2 mg/dL | POTASSIUM (120 h, time 5 day): 6.21 MEQ/L | SODIUM (120 h, time 5 day): 144.27 MEQ/L | TOTAL BILIRUBIN (120 h, time 5 day): 0.2 mg/dL | TOTAL PROTEIN (120 h, time 5 day): 5.8 G/DL | URIC ACID (120 h, time 5 day): 1.2 mg/dL
